Experimental data published in patent publication US20050169948A1, “Method and compositions for treatment of acne vulgaris and acne rosacea” (priority 2004, published 2005).

Experiments:
[1] = tested on: acne vulgaris or acne rosacea; assay: Clinical studies of topical formulations in acne patients, compared to placebo or to nicotinamide alone; assay type: in vivo, human; conditions: over one thousand acne patients
skin = conditions: concentrations 1.0% to 10%

Row | SMILES | efficacy in treating acne vulgaris or acne rosacea compared to placebo [1] | irritation on continuous or regular topical application (skin)
1 | NC(=O)c1cccnc1 [nicotinamide] | modestly effective | 
2 | O=C(O)c1cccnc1 [nicotinic acid] |  | too irritating
